# Earlier results as cited in patent US6528013B1, “Uncomplexed cyclodextrin compositions for odor and wrinkle control” (The Procter & Gamble Company, priority 1998, dated 2003).
row,SMILES,solubility in water
1,"ClC=CC[N+]12CN3CN(CN(C3)C1)C2.[Cl-] [Dowicil 200, 1-(3-Chlorallyl)-3,5,7-triaza-1-azoniaadamantane chloride]",freely soluble in water
2,"O=[N+]([O-])C1(Br)COCOC1 [Bronidox L, 5-bromo-5-nitro-1,3-dioxane]",about 0.46%
3,[Na+].[O-][n+]1ccccc1[S-] [sodium pyrithione],about 50%
4,OCCOc1ccccc1 [2-phenoxyethanol],about 2.67%
5,"CC1(C)C(=O)N(CO)C(=O)N1CO [DMDM hydantoin, 1,3-bis(hydroxymethyl)-5,5-dimethyl-2,4-imidazolidinedione]",more than 50%
6,"O=[N+]([O-])C(Br)(CO)CO [Bronopol, 2-bromo-2-nitropropane-1,3-diol]",about 25%
7,OCCc1ccccc1 [2-phenylethanol],about 2%

# The remaining lines, values ahead:
row,solubility in water,SMILES
1,about 0.8%,"CC(C)(O)C(Cl)(Cl)Cl [chlorobutanol, 1,1,1-Trichloro-2-methylpropan-2-ol, reference compound]"
2,about 1.8%,"[H]/N=C(\N/C(=N/[H])NCCCCCCNC(=N)NC(=N)Nc1ccc(Cl)cc1)Nc1ccc(Cl)cc1 [chlorhexidine diacetate, 1,1′-hexamethylene bis(5-(p-chlorophenyl)biguanide), reference compound]"
3,about 70%,"[H]/N=C(\N/C(=N/[H])NCCCCCCNC(=N)NC(=N)Nc1ccc(Cl)cc1)Nc1ccc(Cl)cc1 [chlorhexidine digluconate, 1,1′-hexamethylene bis(5-(p-chlorophenyl)biguanide), reference compound]"
4,about 4%,OCc1ccccc1 [benzyl alcohol]
